Reference: patent US20120207733A1 (priority 2011, published 2012)

Test system: DU-145 cells
Format: cell-based, Human

With `C=C1[C@@H](C)[C@H]2[C@H](Cc3ccccc3)NC(=O)[C@]23[C@H](OC(C)=O)/C=C/[C@@](C)(O)C(=O)[C@@H](C)C/C=C/[C@H]3[C@@H]1O` [Cytochalasin-D] as the compound, how does the “Effect on cell migration” value read?
The value was “did not migrate”.

What about the “Relative Wound Density at 24 Hours, Mean” value of the same compound?
Its value is 3.3 ± 0.2.

And the “Relative Wound Density at 24 Hours, Percent Relative to Media” value?
Its value is 4%.
